Reference: patent US7704986B2, “Vitamin D3 analogues for the prevention and treatment of bone disorders” (K.U. Leuven Research and Development, priority 2004, dated 2010)
“And” between values parts separate entries of the source, which are not always exact repeats. Identical values can stand only once.

Tests used:
[1] = system: normal (no surgery) C3H female mice; test: Oral gavage versus i.p. in normal (no surgery) mice, 5 weeks; assay type: in vivo; conditions: for BMC total body, SHAM + vitaminD analogue vs. SHAM + vehicle (= 100%) in % / BMD spine, SHAM + vitaminD analogue vs. SHAM + vehicle (= 100%) in % / BMD total body, SHAM + vitaminD analogue vs. SHAM + vehicle (= 100%) in %: DEXA, 5 weeks, increase (↑)
Procedure: Besides injecting the compound MV2 intraperitoneally (results in table 3), it was also given orally by gavage in normal (no surgery) C3H female mice and the biological effects were investigated as described before. MV2 given orally at a dose of 1 μg/kg/2days (3 times per week) during 5 weeks was as effective as intraperitoneal injections at a dose of 0.5 μg/kg/2 days (4 times per week) during 5 weeks in C3H mice (Table 4).

vitamin D receptor (VDR) = target: T1, vitamin D receptor (VDR) (Sus scrofa, UniProt A3RGC1); test: Affinity for vitamin D receptor: competition with [3H]1α,25(OH)2D3; assay type: binding; conditions: pig intestinal mucosa supernatant, 4° C. 20 hours; 1α,25(OH)2D3 = 100%
T1 construct: high speed supernatant from intestinal mucosa homogenates obtained from normal pigs; from tissue; host or cells: pig intestinal mucosa (high speed supernatant of homogenate)
T1 sequence (A3RGC1 1-427): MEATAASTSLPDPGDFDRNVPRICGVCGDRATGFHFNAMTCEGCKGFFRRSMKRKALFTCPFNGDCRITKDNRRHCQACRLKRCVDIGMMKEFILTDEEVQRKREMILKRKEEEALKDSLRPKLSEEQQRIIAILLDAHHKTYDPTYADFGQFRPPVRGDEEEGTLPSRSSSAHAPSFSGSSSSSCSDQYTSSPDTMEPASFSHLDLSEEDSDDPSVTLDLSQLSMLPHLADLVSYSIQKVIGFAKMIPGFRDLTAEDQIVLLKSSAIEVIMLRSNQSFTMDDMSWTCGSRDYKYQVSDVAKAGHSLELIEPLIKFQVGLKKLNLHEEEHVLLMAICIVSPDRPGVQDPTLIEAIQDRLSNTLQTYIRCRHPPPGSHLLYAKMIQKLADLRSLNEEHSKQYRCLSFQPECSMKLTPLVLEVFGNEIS
Procedure: The methods used herein to evaluate the binding properties of vitamin D analogues are state of the art techniques used for steroid hormone (including vitamin D) binding assays. […] Incubation was performed at 4° C. for 20 hours and phase separation was obtained by addition of dextran-coated charcoal.

NMRI mice = test: In vivo activity: serum and femur calcium after 7 daily i.p. injections; conditions: dose 0.2 μg/kg/d i.p., 7 days; * in cell = P < 0.05
Procedure: Eight weeks old, male NMRI mice were fed a vitamin D-replete diet (0.2% calcium, 1% phosphate, 2000 U vitamin D/kg; Hope Farms, Woerden, The Netherlands). Groups of six mice were intraperitoneally injected daily during 7 consecutive days with different doses of 1,25(OH)2D3 (0.2 and 0.4 μg/kg/day) or analogues. The control group was injected with vehicle (arachis oil). The average weight of each group of 6 mice was determined at the beginning and at the end of the experiment. The following parameters were evaluated: serum calcium and femur calcium. Serum calcium was measured by a microcolorimetric assay (Sigma, St. Louis, Mo.). Femurs were removed and femur calcium content was measured in HCl-dissolved bone ash (obtained by heating for 24 hours in an oven at 100° C.), using the same technique as for serum calcium. Student's t-tests were carried out to detect significant differences; p<0.05 was accepted as significant. […]

[2] = system: SHAM or OVX operated C3H mice; test: Ovariectomized mice model for primary prevention of osteoporosis; assay type: in vivo; conditions: 0.5 μg/kg i.p.
Procedure: Twelve-week-old C3H mice were randomly divided into four groups (9-13 mice/group). Two groups of mice were SHAM-operated (SHAM) and two groups were ovariectomized (OVX). Three days after the surgical procedure the SHAM and OVX mice were injected with MV2 intraperitoneally at 0.5 μg/kg/2days (4 times per week) or vehicle (arachis oil). The mice were treated for 8 weeks. At the beginning (before the first injection) of the experiment, bone mineral density (BMD) and bone mineral content (BMC) were determined by dual-energy X-ray absorptiometry (hereinafter referred as DEXA) and serum calcium levels were determined by a microcolorimetric assay. The animals were weighted regularly during the experimental period.
At the end of the experiment serum calcium levels, BMD and BMC were again measured. Trabecular and cortical bone mineral content (BMC) and bone mineral density (BMD) and the geometry of the femur were assessed by a Stratex XCT densitometer (pQCT). Femur calcium content was measured in HCl-dissolved bone ash (obtained by heating for 24 hours in an oven at 100° C.), using a microcolorimetric assay. […] Statistical analysis was performed with the software program NCSS (NCSS, Kaysville, Utah, USA). ANOVA analyses followed bye Fisher's least significant (LSD)-multiple comparison tests were carried out to detect significant differences, p<0.05 was accepted as significant.

[3] = 0.5 μg/kg/2 days i.p. 4 times per week
[4] = 1 μg/kg/2 days orally 3 times per week
[5] = DEXA, OVX mice, 8 weeks, increase (↑)
[6] = DEXA, SHAM mice, 8 weeks, increase (↑)
[7] = calculated from pQCT femur, OVX mice, 8 weeks, increase (↑)
[8] = calculated from pQCT femur, SHAM mice, 8 weeks, increase (↑), * not significant
[9] = pQCT femur, OVX mice, 8 weeks, increase (↑)
[10] = pQCT femur, SHAM mice, 8 weeks, increase (↑)

In the case of C[C@H](CC#CC(O)(C(F)(F)F)C(F)(F)F)[C@@]1(C)CC[C@@H](/C=C/C=C2C[C@@H](O)C[C@H](O)C2)C1(C)C [MV2, (1R,3R)-5-((E)-3-((1S,3R)-3-((1R)-6,6,6-trifluoro-5-hydroxy-1-methyl-5-trifluoromethyl-3-hexynyl)-2,2,3-trimethylcyclopentyl)-2-propenylidene)cyclohexane-1,3-diol], the “BMC total body, SHAM + vitaminD analogue vs. SHAM + vehicle (= 100%) in %” value [1, 3] is reported as 7 ↑ %, the “BMD spine, SHAM + vitaminD analogue vs. SHAM + vehicle (= 100%) in %” value [1, 3] is reported as 9 ↑ % and the “BMD total body, SHAM + vitaminD analogue vs. SHAM + vehicle (= 100%) in %” value [1, 3] is reported as 4 ↑ %. The “BMC total body, SHAM + vitaminD analogue vs. SHAM + vehicle (= 100%) in %” value [1, 4] was 10 ↑ %, the “BMD spine, SHAM + vitaminD analogue vs. SHAM + vehicle (= 100%) in %” value [1, 4] was 14 ↑ % and the “BMD total body, SHAM + vitaminD analogue vs. SHAM + vehicle (= 100%) in %” value [1, 4] was 5 ↑ %. For the same molecule, the serum calcium levels ([1]; analogue treated mice, 5 weeks (control mice 11.43±0.78)) was 11.36 ± 0.56 mg/dL, the “VDR (relative affinity)” value (vitamin D receptor (VDR)) was 50% and the “Serum calcium vs. control (%)” value (NMRI mice) was 97%. The “femur calcium vs. control (%)” value (NMRI mice) was 112* %, the “body weight during treatment” value ([2]; 8 weeks) was “no animals lost weight” and the “serum calcium levels (no hypercalcemic effects)” value ([2]; end of 8 weeks) was “below 11.5 mg/dl”. The “BMC total body, OVX + analogue vs. OVX + vehicle (= 100%) in %” value [2, 5] was 19% and 19 ↑ %, the “BMD spine, OVX + analogue vs. OVX + vehicle (= 100%) in %” value [2, 5] was 22% and 22 ↑ % and the “BMD total body, OVX + analogue vs. OVX + vehicle (= 100%) in %” value [2, 5] was 9% and 9 ↑ %. The “BMC total body, SHAM + analogue vs. SHAM + vehicle (= 100%) in %” value [2, 6] was 16% and 16 ↑ %, the “BMD spine, SHAM + analogue vs. SHAM + vehicle (= 100%) in %” value [2, 6] was 11% and 11 ↑ % and the “BMD total body, SHAM + analogue vs. SHAM + vehicle (= 100%) in %” value [2, 6] was 9% and 9 ↑ %. The “increase in calcium content in femur, OVX treated animals compared to control animals” value ([2]; OVX mice, 8 weeks) was 14%, the “increase in calcium content in femur, SHAM treated animals compared to control animals” value ([2]; SHAM mice, 8 weeks) was 12% and the “Moment of inertia, OVX analogue versus OVX vehicle (=100%) in %” value [2, 7] was 12 ↑ %. For the same molecule, the “Moment of resistance, OVX analogue versus OVX vehicle (=100%) in %” value [2, 7] was 8 ↑ %, the “Moment of inertia, SHAM analogue versus SHAM vehicle (=100%) in %” value [2, 8] was 6 ↑* % and the “Moment of resistance, SHAM analogue versus SHAM vehicle (=100%) in %” value [2, 8] was 3 ↑* %. The “Endosteal circumference, OVX analogue versus OVX vehicle (=100%) in %” value ([2]; pQCT femur, OVX mice, 8 weeks, decrease (↓), * not significant) was 2 ↓* %, the “Cortical BMC, OVX analogue versus OVX vehicle (=100%) in %” value [2, 9] was 11 ↑ % and the “Cortical BMD, OVX analogue versus OVX vehicle (=100%) in %” value [2, 9] was 2 ↑ %. The “Cortical area, OVX analogue versus OVX vehicle (=100%) in %” value [2, 9] was 9 ↑ %, the “Cortical thickness, OVX analogue versus OVX vehicle (=100%) in %” value [2, 9] was 8 ↑ % and the “Periosteal circumference, OVX analogue versus OVX vehicle (=100%) in %” value [2, 9] was 3% and 3 ↑ %. The “Trabecular BMC, OVX analogue versus OVX vehicle (=100%) in %” value [2, 9] was 69 ↑ %, the “Trabecular BMD, OVX analogue versus OVX vehicle (=100%) in %” value [2, 9] was 57 ↑ % and the “Trabecular area, OVX analogue versus OVX vehicle (=100%) in %” value [2, 9] was 8 ↑ %. For the same molecule, the “Endosteal circumference, SHAM analogue versus SHAM vehicle (=100%) in %” value ([2]; pQCT femur, SHAM mice, 8 weeks, decrease (↓), * not significant) was 4 ↓* %, the “Cortical BMC, SHAM analogue versus SHAM vehicle (=100%) in %” value [2, 10] was 7 ↑ % and the “Cortical BMD, SHAM analogue versus SHAM vehicle (=100%) in %” value [2, 10] was 1 ↑ %. For the same molecule, the “Cortical area, SHAM analogue versus SHAM vehicle (=100%) in %” value [2, 10] was 6 ↑ %, the “Cortical thickness, SHAM analogue versus SHAM vehicle (=100%) in %” value [2, 10] was 6 ↑ % and the “Trabecular BMC, SHAM analogue versus SHAM vehicle (=100%) in %” value [2, 10] was 83 ↑ %. For the same molecule, the “Trabecular BMD, SHAM analogue versus SHAM vehicle (=100%) in %” value [2, 10] was 74 ↑ %, the “Trabecular area, SHAM analogue versus SHAM vehicle (=100%) in %” value [2, 10] was 7 ↑ % and the “Periosteal circumference, SHAM analogue versus SHAM vehicle (=100%) in %” value ([2]; pQCT femur, SHAM mice, 8 weeks, increase (↑), * not significant) was 1 ↑* %.
